Measured values: ChEMBL document CHEMBL5126522, “In vitro and in vivo evaluation of 211At-labeled fibroblast activation protein inhibitor for glioma treatment” (Bioorg Med Chem, 2022)
Activity calls are given as the source filed them.

Key:
U-87MG ATCC [1] = assay: Antitumor activity against human U-87 MG cells xenografted in BALB/c nude mouse assessed as reduction in Ki67 expression in tumor at 0.55 MBq, it measured after 12 days by immunohistochemical analysis; assay type: functional, cell-based; conditions: time 12.0 day, tested as the 211At-labelled form
U-87MG ATCC [2] = assay: Induction of apoptosis in human U-87 MG cells assessed as fragmented and condensed chromatin at 18.5 to 185 kBq measured after 24 hrs by DAPI staining based confocal microscopy; assay type: functional, cell-based; conditions: dose 18.5-185 kBq, tested as the 211At-labelled form
U-87MG ATCC [3] = assay: Induction of cell cycle arrest in human U-87 MG cells assessed as increase in proportion of cells at S phase at 185 kBq incubated in radioactive medium for 12 hrs followed by incubation in non-radioactive medium for 24 hrs by PI staining based flow cytometry; assay type: functional; conditions: time 36.0 hrs, tested as the 211At-labelled form
U-87MG ATCC [4] = assay: Cytotoxicity against human U-87 MG cells assessed as reduction in cell viability incubated in radioactive medium for 12 hrs followed by incubation in non-radioactive medium for 24 hrs by CCK8 assay; assay type: functional, cell-based; conditions: dose 12-92 kBq, time 36.0 hrs, tested as the 211At-labelled form, DDE = dose-dependent effect
U-87MG ATCC [5] = assay: Anti-tumor activity against human U-87 MG cells xenografted in BALB/c nude mouse assessed as reduction in tumor growth administered IT measured every 3 days by electronic caliper analysis; assay type: functional; conditions: dose 0.18-0.55 MBq, DDE = dose-dependent effect, tested as the 211At-labelled form
U-87MG ATCC [6] = assay: Inhibition of colony formation in human U-87 MG cells incubated in radioactive medium for 12 hrs followed by incubation in non-radioactive medium for 14 days by crystal violet staining based analysis; assay type: functional, cell-based; conditions: dose 4.6-18.5 kBq, time 852.0 hrs, tested as the 211At-labelled form, DDE = dose-dependent effect

N#C[C@@H]1CC(F)(F)CN1C(=O)CNC(=O)c1ccnc2ccc(OCCCN3CCN(C(=O)c4ccc([At])cc4)CC3)cc12
active: Activity (U-87MG ATCC [1]) | Activity (U-87MG ATCC [2]) | Activity (U-87MG ATCC [3]) | Activity (U-87MG ATCC [4]) Dde | Activity (U-87MG ATCC [5]) Dde | inhibition (U-87MG ATCC [6]) Dde
